US10501479B2, “Benzenesulfonyl-asymmetric ureas and medical uses thereof” (HELSINN HEALTHCARE SA, priority 2016, dated 2019)
Where “and” joins values, the source holds several entries; their conditions need not be identical. Identical values can stand only once.

Legend:
[1] = molecular target: T1, GHSR-1a (HEK293/GHSR1a cell line) (Homo sapiens, UniProt Q92847); test: Ghrelin antagonist potency (IC50) with calcium FLIPR assay, ghrelin 10 nM; type: cell-based; conditions: HEK293/GHSR1a, ghrelin 10 nM, read-out: Activity IC50 (ghrelin antagonist potency)
T1 construct: expressed in transfected cells; host or cells: HEK293/GHSR1a cell line
T1 sequence (Q92847 whole entry): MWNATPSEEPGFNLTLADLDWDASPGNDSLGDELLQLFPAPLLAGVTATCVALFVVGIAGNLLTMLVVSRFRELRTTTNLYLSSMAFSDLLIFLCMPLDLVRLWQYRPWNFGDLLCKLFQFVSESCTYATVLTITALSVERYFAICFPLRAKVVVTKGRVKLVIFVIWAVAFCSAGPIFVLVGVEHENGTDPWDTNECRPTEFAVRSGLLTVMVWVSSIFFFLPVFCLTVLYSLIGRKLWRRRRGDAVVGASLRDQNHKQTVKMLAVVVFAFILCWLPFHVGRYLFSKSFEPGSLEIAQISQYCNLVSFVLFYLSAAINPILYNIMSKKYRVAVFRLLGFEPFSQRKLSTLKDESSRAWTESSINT
How it was run: (§1)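 HEK293/GHSR1a cells, seeded 24 hr ahead and loaded with calcium dye 30-60 min, were read by FLIPR fluorescence for 2 min after addition at t=20 sec. Agonism: compound alone, EC50 from dose-response. Antagonism: compound plus 10 nM ghrelin, IC50 from reduction of ghrelin response.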

[2] = molecular target: T2, recombinant human ghrelin receptor (HEK293/GRLN) (Homo sapiens, UniProt Q92847); test: Ghrelin inverse agonist potency (EC50) with IP-1 (IP-One HTRF) assay; type: cell-based; conditions: IP-1 assay, HEK293/GRLN; read-out: Activity EC50 (ghrelin inverse agonist potency)
T2 construct: expressed in transfected cells
T2 sequence (Q92847 whole entry): as above
How it was run: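 HEK293/GRLN cells were seeded 18-22 hours before the test, then exposed to compound in stimulation buffer for 1 hour at 37° C, 5% CO2. IP-1 was detected by IP-One HTRF (IP1-d2 plus Tb-cryptate, 1 hour RT), reading 620 and 665 nm; the inverse agonist EC50 was derived from this.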

[3] = Plasma protein binding (PPB), mouse; type: in vitro ADME
[4] = Plasma protein binding (PPB), human; type: in vitro ADME; conditions: read-out: PPB (H) (converted)
[5] = Metabolic stability in mouse liver microsomes; type: in vitro ADME
How it was run: (§2)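 Compound incubated with human, dog, rat or mouse liver microsomes in 100 mM potassium phosphate, pH 7.4, at 37 °C. Reaction started with an NADPH regenerating system. Samples quenched at 0, 10, 30 and 90 min, and remaining compound measured by LC-MS/MS.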

[6] = Animal PK study in mouse via i.v., p.o. and s.c. administration; type: in vivo; conditions: for Vd / clearance / half-life: plasma; for clearance: read-out: PK CL i.v.
How it was run: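 Single i.v. (tail vein), s.c. (neck scruff) or p.o. (gavage) dose to mice or rats; oral vehicle 1–5% DMSO/0.5% methylcellulose, i.v./s.c. vehicle 1–5% DMSO in 20% HP-β-cyclodextrin. Plasma sampled 0.083 (i.v./s.c.) or 0.25 to 24 h, analyzed by LC-MS/MS.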

[7] = Plasma protein binding (PPB), dog; type: in vitro ADME; conditions: read-out: PPB (D) (converted)
[8] = Metabolic stability in human liver microsomes; type: in vitro ADME
How it was run: as §2

[9] = Plasma protein binding (PPB), rat; type: in vitro ADME; conditions: read-out: PPB (R)
[10] = molecular target: T1, GHSR-1a (HEK293/GHSR1a cell line); test: Ghrelin agonist potency (EC50) with calcium FLIPR assay; type: cell-based; conditions: HEK293/GHSR1a, read-out: Activity EC50/EMax: EC50 (ghrelin agonist potency)
How it was run: as §1

[11] = Metabolic stability in rat liver microsomes; type: in vitro ADME
How it was run: as §2

[12] = Animal PK study in rat via i.v., p.o. and s.c. administration; type: in vivo; conditions: rat
[13] = Metabolic stability in dog liver microsomes; type: in vitro ADME
How it was run: as §2

[14] = iv, 5 mg/kg, i.v., read-out: PK t1/2 i.v.
[15] = po, 10 mg/kg, p.o., read-out: PK t1/2 p.o.

| Compound | EC50 [2] | fraction unbound [3] | fraction unbound [4] | Metabolic Stability Study M = mouse [5] | PK F [6] | PK CL p.o. ([6]; p.o.) | PK Vd p.o. ([6]; p.o.) | Vd ([6]; iv, 5 mg/kg) | clearance ([6]; iv, 5 mg/kg, i.v.) | half-life [6, 14] | half-life [6, 15] | Metabolic Stability Study H = human [8] | fraction unbound [9] | EC50 [10] | other results |
| --- | --- | --- | --- | --- | --- | --- | --- | --- | --- | --- | --- | --- | --- | --- | --- |
| CC(NC(=O)Nc1ccc(S(=O)(=O)Nc2ccc3c(c2)CCN(C)C3)cc1)c1cccc(Cl)c1Cl (stereo not drawn) [H1333, 4-(3-(1-(2,3-dichlorophenyl)ethyl)ureido)-N-(2-methyl-1,2,3,4-tetrahydroisoquinolin-6-yl)benzenesulfonamide] | 1.3 nM | 0.0006 | 0.0011 | 54 µL/min/mg | 2.08% | 84.3 L/h/kg | 170 L/kg | 3.26 L/kg | 29.7 mL/min/kg | 76.2 min | 84 min | 47.2 µL/min/mg | 0.001 | > 30 µM | IC50 [1]: 2.24 nM; fraction unbound [7]: 0.0015 |
| COc1cc(S(=O)(=O)Cc2ccc3c(c2)CCNC3)ccc1NC(=O)NC(C)c1cccc(Cl)c1Cl.Cl (stereo not drawn) [H1415, 1-(1-(2,3-dichlorophenyl)ethyl)-3-(2-methoxy-4-(((1,2,3,4-tetrahydroisoquinolin-6-yl)methyl)sulfonyl)phenyl)urea] | 0.573 nM and 0.4 nM | 0.0007 | 0.0015 | 12.8 µL/min/mg | 1.12% | 74.5 L/h/kg | 326.9 L/kg | 1.72 L/kg | 17.2 mL/min/kg | 69.6 min | 182 min | < 10 µL/min/mg | 0.0023 | > 30 µM | Metabolic Stability Study R = rat [11]: 28.3 µL/min/mg; clearance ([12]; plasma, iv, 5 mg/kg, i.v., read-out: PK CL i.v. (R)): 35.3 mL/min/kg; Vd ([12]; plasma, iv, 5 mg/kg, i.v., read-out: PK Vd i.v. (R)): 39.7 L/kg; half-life ([12]; plasma, iv, 5 mg/kg, i.v., read-out: PK t1/2 i.v. (R)): 778 min; PK F (R) [12]: 8.9%; PK CL i.p. (R) ([12]; i.p.): 2.76 L/h/kg; PK Vd i.p. (R) ([12]; i.p.): 61.91 L/kg; PK t1/2 i.p. (R) ([12]; i.p.): 17/23; Metabolic Stability Study D = dog [13]: 10.5 µL/min/mg |
